Reference: patent US20190031613A1, “COMPOUNDS AND METHODS FOR THEIR USE IN THE TREATMENT OF MALARIA” (University of South Florida, priority 2016, published 2019)
Values after ≈ are worked out from the molar mass of the structure shown. “Also recorded” adds a separate entry of the source. Where two headings read alike, the source gives them in different places.

Legend:
P. berghei-GFP parasites = assay: in vivo efficacy, modified Thompson test; parameters: species or system mice; settings: for Suppression [%] day 6 PI / Day of death (avg): three daily doses days 3-5 PI
Protocol: Prodrug 6d was orally tested for in vivo efficacy at four doses (0.3 mg/kg, 1.0 mg/kg, 3.0 mg/kg, and 10 mg/kg) in 0.5% aqueous HEC solution.

[1] = aqueous stability and parent compound release by quantitative HPLC; settings: for parent compound released: parent 1d
Protocol: The stability of prodrugs in aqueous media and the release of parent compound was followed for 10 h using HPLC in triplicates.
Compound stability was assessed using quantitative HPLC in buffers at different pHs (2, 4, 7), in a simulated gastric fluid (SGF) and in a simulated intestinal fluid (SIF).

[2] = in vivo pharmacokinetics in mice (plasma, LC/MS-MS)
Protocol: Plasma exposure of prodrug 6e and parent compound 1b was determined following a single oral administration at 10 mg/kg and 3 mg/kg doses in 0.5% aqueous HEC (FIG. 5b).
Compounds 1b and its prodrug 6e were administered as a single dose (10 mg/kg) in 0.5% HEC using freshly prepared solution. Parent compound 1d and its prodrugs 6c and 6d were administered as a single dose of 50 mg/kg using the same vehicle. The blood was collected in prepared 5 ml syringe containing heparin via cardiac puncture and put into 15 mL conical tube on ice. Five mice were used per one time point at 0.5 h, 1 h, 2 h, 4 h, 8 h and 24 h […] plus 2 mice as a control (not-treated). The blood was then centrifuged for 5 min at 4000 rpm and plasma supernatant collected while avoiding the whole blood pellet at the bottom of the tube. The plasma was stored at −80° C. until the day of LC/MS-MS analysis.
Compound concentrations were quantitated in plasma samples by LC/MS-MS using an Agilent triple quadrupole instrument. Chromatographic separation was conducted using an Agilent HPLC with Phenomenex Kinetex C18 column (2.6 μm particle size, 50-4.6 mm i.d.) equipped with a Phenomenex Security Guard column. The mobile phase (1.25 mL/min) consisted of 0.05% formic acid in water and 0.05% formic acid in acetonitrile mixed using a linear gradient over 7 minutes. […] Plasma samples and calibration standards were prepared by protein precipitation with acetonitrile (3 parts acetonitrile to 1 part plasma), followed by centrifugation and analysis of the supernatant. Sample concentrations were determined by comparison to calibration standards prepared in blank plasma and assayed using the same conditions. The analytical lower limit of quantitation in plasma was typically 0.75-1.00 nM and accuracy, precision and recovery were within acceptable limits.
The plasma was first warmed up on ice for about 1 hour. Then 50 μL of plasma sample was precipitated with 150 μL of cold acetonitrile with internal standard (133 nM) P4Q-95^20) following by centrifugation at 4,000 rpm for 5 min at 4° C. and transfer˜150 μL of the supernatant to LCMS vial. The samples were analyzed using Agilent triple quadruple instrument in triplicates (5 mice×3 injections for each time point). The chemical structure of P4Q-95^20 is shown below:
The calibration curve for 1d was linear in 1 to 500 nM range so samples were diluted if needed to fit this linearity and then concentration recalculated accordingly. Calibration curve was run each time following the actual PK measurements and used for that particular compound.

[3] = system: multidrug resistant malarial strain W2 (pyrimethamine and chloroquine resistant); assay: in vitro antimalarial activity against strain W2; type: cell-based; settings: strains W2 and TM90-C2B, strain not specified
Description: FIG. 2a depicts the synthesis of 4(1H)-quinolones 1 via Conrad-Limpach reaction^24 and conversion to first set of prodrugs (2, 3 and 4) via O-acylation.
FIG. 4a depicts the synthesis of 4(1H)-quinolones 1 into amino AOCOM ether prodrugs 6 via O-alkylation and subsequent deprotection.

[4] = aqueous solubility at pH 7.4; settings: pH 7.4, aqueous buffer
P. berghei = settings: lowest single-cure dose as reported; cited from earlier work
[5] = 10 mg/kg PO, 0.5% aqueous HEC, untreated 13
[6] = oral dose 50.0 mg/kg, 0.5% aqueous HEC

**Q.** With CNCCCOC(=O)OCOc1c(-c2ccc(C(F)(F)F)cc2)c(C)nc2cc(OC)c(Cl)cc12.Cl [6d, 6-Chloro-7-methoxy-2-methyl-3-(4-(trifluoromethyl)phenyl)-4-(((3-(methylammonio)propyloxycarbonyl)oxy)methoxy)quinoline, chloride salt] as the compound, how does the “Suppression [%] day 6 PI” value (P. berghei-GFP parasites; 10 mg/kg PO, 0.5% aqueous HEC) read?
**A.** 82%

**Q.** And the “Day of death (avg)” value (P. berghei-GFP parasites; [5])?
**A.** 13

**Q.** What about the “Day of death (avg)” value (P. berghei-GFP parasites; 50 mg/kg PO, 0.5% aqueous HEC) of the same compound?
**A.** 14

**Q.** What about the “Suppression [%] day 6 PI” value (P. berghei-GFP parasites; 50 mg/kg PO, 0.5% aqueous HEC) of the same compound?
**A.** 96%

**Q.** And the “life span of treated animals relative to untreated controls” value (P. berghei-GFP parasites; 10 and 50 mg/kg PO)?
**A.** do not significantly extend the life span

**Q.** And the “aqueous stability” value ([1]; buffers pH 2, 4, 7, SGF, SIF)?
**A.** stable at low pH values; also recorded: more stable than 6c

**Q.** What about the parent compound released ([1]; in 5 h at pH 7.0) of the same compound?
**A.** > 55%

**Q.** What about the “AUC0→24” value ([2]; mouse, in vivo, po, 50 mg/kg) of the same compound?
**A.** 11664 µmol·min/L

**Q.** And the “AUC of 1d improved vs dosing of 1d” value ([2]; mouse, in vivo, po, 50 mg/kg)?
**A.** 52 fold

**Q.** And the “CL” value ([2]; mouse, in vivo, po, 50 mg/kg)?
**A.** 7.8 mL·kg/min

**Q.** And the Cmax ([2]; mouse, in vivo, po, 50 mg/kg)?
**A.** 21.2 µmol/L

**Q.** What about the “Vd” value ([2]; mouse, in vivo, po, 50 mg/kg) of the same compound?
**A.** 4.3 L/kg

**Q.** And the “t1/2 apparent” value ([2]; mouse, in vivo, po, 50 mg/kg)?
**A.** 6.4 h

**Q.** What about the “tmax” value ([2]; mouse, in vivo, po, 50 mg/kg) of the same compound?
**A.** 1 h

**Q.** What does the source list for CCN(CC)C(=O)Oc1c(-c2ccccc2C)c(C)nc2cc(OC)c(Cl)cc12 [2a]?
**A.** EC50 values fold higher than reference 4(1H)-quinolone 1c [3]: 300 fold; in vitro antimalarial activity / EC50 values relative to 1c [3]: lacked in antimalarial activity; solubility [4]: < 1 µM

**Q.** For COc1cc2[nH]c(C)c(-c3ccccc3C)c(=O)c2cc1Cl [1c, 6-chloro-7-methoxy-2-methyl-3-(o-tolyl)-4(1H)-quinolone, reference compound], which “Suppression [%] day 6 PI” value (P. berghei-GFP parasites; 10 mg/kg PO, 0.5% aqueous HEC) is on record?
**A.** 29%

**Q.** What about the “Day of death (avg)” value (P. berghei-GFP parasites; [5]) of the same compound?
**A.** 13

**Q.** And the “Day of death (avg)” value (P. berghei-GFP parasites; 50 mg/kg PO, 0.5% aqueous HEC)?
**A.** 13

**Q.** What about the “Suppression [%] day 6 PI” value (P. berghei-GFP parasites; 50 mg/kg PO, 0.5% aqueous HEC) of the same compound?
**A.** 28%

**Q.** And the solubility ([4]; aqueous medium at pH 7.4 (buffer not named))?
**A.** 8.7 µM (≈ 2.73 µg/mL)

**Q.** Which “PO dose, single exposure radical cure” value (P. berghei) does the source give for CS(=O)(=O)c1ccc(-c2cnc(N)c(-c3ccc(C(F)(F)F)nc3)c2)cc1 [MMV390048] here?
**A.** 30 mg/kg

**Q.** With CNCCOC(=O)OCOc1c(-c2ccc(C(F)(F)F)cc2)c(C)nc2cc(OC)c(Cl)cc12.Cl [6c, 6-Chloro-7-methoxy-2-methyl-3-(4-(triftuoromethyl)phenyl)-4-(((2-(methylammonio)ethoxycarbonyl)oxy)methoxy)quinoline, chloride salt] as the compound, how does the “Suppression [%] day 6 PI” value (P. berghei-GFP parasites; 10 mg/kg PO, 0.5% aqueous HEC) read?
**A.** 75%

**Q.** What about the “Day of death (avg)” value (P. berghei-GFP parasites; [5]) of the same compound?
**A.** 13

**Q.** And the “Day of death (avg)” value (P. berghei-GFP parasites; 50 mg/kg PO, 0.5% aqueous HEC)?
**A.** 16

**Q.** What about the “Suppression [%] day 6 PI” value (P. berghei-GFP parasites; 50 mg/kg PO, 0.5% aqueous HEC) of the same compound?
**A.** 96%

**Q.** What about the parent compound released ([1]; in 1 h at pH 7.0) of the same compound?
**A.** > 90%

**Q.** What about the parent compound released ([1]; in 10 h at pH 4.0) of the same compound?
**A.** > 25%

**Q.** What about the “AUC0→24” value [2, 6] of the same compound?
**A.** 8031 µmol·min/L

**Q.** What about the “CL” value [2, 6] of the same compound?
**A.** 11.6 mL·kg/min

**Q.** What about the “Vd” value [2, 6] of the same compound?
**A.** 7.8 L/kg

**Q.** And the “t1/2 apparent” value [2, 6]?
**A.** 7.7 h

**Q.** What about the “tmax” value [2, 6] of the same compound?
**A.** 4 h

**Q.** And the Cmax ([2]; read-out: Cmax [μmol/L], oral dose 50.0 mg/kg, 0.5% aqueous HEC, parent in plasma)?
**A.** 12 µmol/L

**Q.** And the “AUC of 1d improved vs dosing of 1d” value ([2]; single oral 50 mg/kg)?
**A.** 36 fold

**Q.** What about the “maximum plasma concentration of 1d” value ([2]; single oral 50 mg/kg of prodrug, 0.5% aqueous HEC) of the same compound?
**A.** 12 µM

**Q.** For CNCCOC(=O)OCOc1c(-c2ccccc2C)c(C)nc2cc(OC)c(Cl)cc12.Cl [6a, 6-Chloro-7-methoxy-2-methyl-3-(o-tolyl)-4-(((2-(methylammonio)ethoxycarbonyl)oxy)methoxy)quinoline, chloride salt], which “Suppression [%] day 6 PI” value (P. berghei-GFP parasites; 10 mg/kg PO, 0.5% aqueous HEC) is on record?
**A.** 71%

**Q.** What about the “Day of death (avg)” value (P. berghei-GFP parasites; [5]) of the same compound?
**A.** 16

**Q.** What about the “Day of death (avg)” value (P. berghei-GFP parasites; 50 mg/kg PO, 0.5% aqueous HEC) of the same compound?
**A.** 13

**Q.** What about the “Suppression [%] day 6 PI” value (P. berghei-GFP parasites; 50 mg/kg PO, 0.5% aqueous HEC) of the same compound?
**A.** 46%

**Q.** For CCN(CC)Cc1cc(Nc2ccnc3cc(Cl)ccc23)ccc1O [ADQ, reference compound], which “Suppression [%] day 6 PI” value (P. berghei-GFP parasites; 10 mg/kg PO, 0.5% aqueous HEC) is on record?
**A.** >99%

**Q.** And the “Day of death (avg)” value (P. berghei-GFP parasites; [5])?
**A.** 21

**Q.** What about the “Day of death (avg)” value (P. berghei-GFP parasites; Table 3 control: 10 mg/kg PO) of the same compound?
**A.** 21

**Q.** What about the “Suppression [%] day 6 PI” value (P. berghei-GFP parasites; Table 3 control: 10 mg/kg PO) of the same compound?
**A.** >99%
